# Measurements as given in US10759762B2, “Fluorescent synthetic retinoids” (High Force Research Limited, priority 2014, dated 2020).
# Experiments:
# TERA-2 cells [1] = assay: Immunocytochemical staining for TUJ-1; format: cell-based; conditions: for TUJ-1 staining: 1 and 10 μM
# From the text: DMSO treated cells show only limited TUJ-1 staining.
# TERA-2 cells [2] = assay: Immunocytochemical staining for nestin; format: cell-based
# cell populations = assay: Phase contrast images of treated cell populations; format: cell-based
# From the text: In cell populations treated with DMSO, the cells are small, and densely packed together.
# TERA-2 cells [3] = assay: Immunocytochemical staining for cytokeratin 8 (CK8); format: cell-based; conditions: 10 μM vs 1 μM
# TERA-2 cells [4] = assay: Flow cytometry, stem cell marker TRA160; format: cell-based; conditions: for expression of TRA160 compared to DMSO treated cells: flow cytometry
# [5] = background statement; cited from earlier work
# cells = assay: MTT cell viability analysis; format: cell-based; conditions: compared to DMSO
# [6] = background statement; cited from earlier work; remark: listed apart in the source
# TERA-2 cells [7] = assay: Immunocytochemical staining for Sox 2; format: cell-based; conditions: 1 and 10 μM
# TERA-2 cells [8] = assay: Immunocytochemical staining for Oct 4; format: cell-based
# TERA-2 cells [9] = assay: Flow cytometry, early neuronal marker A2B5; format: cell-based
# From the text: ATRA treated cells express higher levels of A2B5 followed by EC23® and compound 9.
# TERA-2 cells [10] = assay: Flow cytometry, stem cell marker SSEA-3; format: cell-based; conditions: for expression of SSEA-3 compared to DMSO treated cells: flow cytometry
# [11] = Stability on exposure to light of wavelength 300 to 400 nm; format: physicochemical; conditions: 3 days exposure to light of wavelength 300 to 400 nm
# From the text: Retinoid compounds such as ATRA are unstable upon storage. In particular, such compounds are susceptible to photoisomerisation and degradation upon exposure to light in the 300 to 400 nm region. […] Generally the compounds of formula 1 have far better stability than retinoids such as ATRA, in particular the compounds of formula 1 are far less susceptible to photoisomerisation. Generally, following 3 days exposure to light having a wavelength of 300 to 400 nm, the compounds of the present invention undergo far less isomerisation and degradation than ATRA. Typically at least 60% by weight of the compounds of the present invention remain (compared to less than 40% by weight ATRA) following 3 days exposure to light of wavelength 300 to 400 nm.
# [12] = Initial fluorescence characterisation (absorption and emission spectra in solvents); format: physicochemical
# From the text: Absorption and emission spectra of 9 were obtained in a variety of solvents (FIG. 3 and FIG. 4). […] The fluorescence emission wavelength is also highly dependent on solvent polarity, with a significant red shift occurring in polar solvents when compared to non polar solvents.
# This absorption band peaks at around 379 nm, and trails into the indigo/blue (440 nm).
# [13] = Light stability of compound 9 by 1H NMR under standard laboratory light; format: physicochemical
# Description: A ^1H NMR spectrum of compound 9 in DMSO-d6 was recorded after storage at ambient temperature in the absence of light (FIG. 7). The same sample of compound 9 was then exposed to standard laboratory light at a distance of 30 cm for 72 hours, and the ^1H NMR spectrum recorded (FIG. 8). Compound 9 is stable towards typical laboratory lighting over this time period, although a small proportion converts to a structurally similar enamine form. Compound 9 remains stable until around 16 day's exposure, where some indication of degradation becomes apparent. More significant degradation is observed after 22 day's exposure, although compound 9 still represents the major constituent of the sample (>60%).
# [14] = 1 M treatment (so in the source)
# [15] = both 1 and 10 M treatments (so in the source)
Structure (SMILES),TUJ-1 staining with 10 μM treatment relative to 1 μM (TERA-2 cells [1]),TUJ-1 staining (TERA-2 cells [1]),nestin staining (TERA-2 cells [2]; 10 μM treatment),nestin staining (TERA-2 cells [2]; [14]),"cell population appearance in contrast to DMSO (small, densely packed) (cell populations)",CK8 staining intensity in 10 μM samples compared with 1 μM samples (TERA-2 cells [3]),expression of TRA160 compared to DMSO treated cells (TERA-2 cells [4]),MTT cell viability (cells; 1 μM treatment),MTT cell viability (cells; 10 μM treatment),stability on exposure to light [6],Sox 2 staining compared to DMSO treated cells (TERA-2 cells [7]),Oct 4 staining (TERA-2 cells [8]; 1 μM),Oct 4 staining (TERA-2 cells [8]; 10 μM),expression of A2B5 compared to DMSO treated cells (TERA-2 cells [9]),expression of SSEA-3 compared to DMSO treated cells (TERA-2 cells [10]),other results
CC1(C)CCC(C)(C)c2cc(C#Cc3ccc(C(=O)O)cc3)ccc21 [EC23®],increased staining,significant staining,positive for nestin with staining possibly to a lesser extent,positive for nestin,"less dense, and cells are much more spread out",less intense,significantly decreased,comparable viability to DMSO,comparable viability to DMSO,good stability,significantly reduced staining,do not exhibit staining,do not exhibit staining,significantly increased,significantly decreased,susceptibility to metabolic degradation [5]: not be susceptible
"CC1=C(/C=C/C(C)=C/C=C/C(C)=C/C(=O)O)C(C)(C)CCC1 [ATRA, All Trans-Retinoic Acid]",increased staining,significant staining,positive for nestin,positive for nestin,"less dense, and cells are much more spread out",less intense,significantly decreased,comparable viability to DMSO,comparable viability to DMSO,poor stability,significantly reduced staining,staining is also evident,do not exhibit staining,significantly increased,significantly decreased,amount of compound remaining [11]: less than 40 % by weight; level of A2B5 relative to the other retinoids (TERA-2 cells [9]): higher levels
"CC1=CC(C)(C)c2cc(C#Cc3ccc(C(=O)O)cc3)ccc2N1C(C)C [compound 17, 4-2-[2,4,4-Trimethyl-1-(propan-2-yl)-1,4-dihydroquinolin-6-yl]ethynyl benzoic acid]",–,–,–,–,–,–,–,–,–,–,–,–,–,–,–,peak of maximal absorption band ([12]; chloroform (FIG. 5)): around 379 nm
"CC(C)N1CCC(C)(C)c2cc(C#Cc3ccc(C(=O)O)cc3)ccc21 [compound 9, 4-2-[4,4-Dimethyl-1-(propan-2-yl)-1,2,3,4-tetrahydroquinolin-6-yl]ethynylbenzoic acid]",increased staining,significant staining,positive for nestin with staining possibly to a lesser extent,positive for nestin,"less dense, and cells are much more spread out",slightly brighter,significantly decreased,comparable viability to DMSO,comparable viability to DMSO,–,significantly reduced staining,do not exhibit staining,do not exhibit staining,significantly increased,significantly decreased,"lowest concentration at which fluorescence was easily detected ([12]; in solvents): 1 nM; level of TRA160 relative to ATRA and EC23 (TERA-2 cells [4]; [15]): slightly higher levels; exposure time until which compound remains stable (first indication of degradation) ([13]; DMSO-d6, standard laboratory light): around 16 day; stability towards typical laboratory lighting ([13]; DMSO-d6, standard laboratory light at 30 cm, 72 hours, ambient temperature): stable; share of the sample still compound 9 (major constituent) ([13]; after 22 day's exposure to laboratory light): > 60%; level of SSEA-3 relative to ATRA and EC23 (TERA-2 cells [10]; [15]): higher levels"
